Results: US20050026850A1, “Combination of dehydroepiandrosterone or dehydroepiandrosterone-sulfate with a tyrosine kinase inhibitor, delta opioid receptor antagonist, neurokinin receptor antagonist, or VCAM inhibitor for treatment of asthma or chronic obstructive pulmonary disease” (priority 2003, published 2005)
Values joined by “and” are separate entries in the source; they are usually repeats but may differ in a detail not shown here. Equal entries are not always repeated.

Legend:
Intracellular adenosine = experiment: In vivo effect on adenosine levels in various rat tissues
[1] = Solid-state stability with and without lactose at 50° C. (DHEA formation by HPLC); assay type: physicochemical; settings: for DHEA % formed from Anhydrous DHEA-S / Percent DHEA formed from DHEA-S Dihydrate: Control, neat, sealed, 25° C.
Source text: These conditions were used to stress the formulation in order to predict its long-term stability results. […] The primary degradant is DHEA. […] The materials on accelerated storage become more cohesive with time as evidenced by clumping during sample weighing for chemical analysis. […] This is a considerable disadvantage since lactose is the most commonly used inhalation excipient for dry powder formulations. Continuing with the virtually anhydrous form would mean limiting formulations to neat powder or undertaking more comprehensive safety studies to use a novel excipient.

[2] = HPLC analysis of drug degradation during jet milling micronization; assay type: physicochemical; settings: single-pass and double-pass jet milled, HPLC peak area versus unmilled standard
Description: Two vials (A; single-pass; 150 mg) and (B double-pass; 600 mg) of the micronized drug were available for determining drug degradation during jet milling micronization. […] The chromatographic peak area for the HPLC assay of the unmilled drug standard solution (10 mg/ml) gave a value of 23,427. […] The chromatographic peak areas for vials A and B were 11,979 and 11,677, respectively.

Solubility of DHEA-S = assay type: physicochemical; settings: 15° C., 20 mM Na+, from Ksp by quadratic formula
Source text: Inhalation of pure water can produce a cough stimulus. […] The temperature effect is weaker at high NaCl concentrations.

[3] = Short-term solution stability of DHEA-S formulation; assay type: physicochemical; settings: 7.5 mg/mL of DHEA-S in 0.12% NaCl, RT
Description: Aliquots of this solution are filled into clear glass vials and stored at RT (24-26° C.) and at 40° C. The samples are checked daily for DHEA-S content, DHEA content, and appearance. For each time point, duplicate samples are withdrawn and diluted from each vial. […] The study is stopped on day three. […] The solution should easily be stable for the day of reconstitution in a clinical trial. The following section describes the aerosol properties of this formulation.

Nebulizer studies = settings: 0.12% NaCl (20 mM Cl−), Pari LC Plus nebulizer, 5 mL
Source text: The collection apparatus, nebulizer, and imp actor are rinsed with mobile phase and assayed by HPLC.

[4] = tested on: rat peritoneal mast cells; experiment: Compound 48/80 histamine release from rat peritoneal mast cells; assay type: cell-based; settings: for % Inhibition of Histamine Release: DHEA-S 0; for effect on compound 48/80 induced mast cell degranulation: antagonist alone, 1-100 nM
NK1 = settings: printed under the compound name in the table, no method or source; cited from earlier work
HT-29 SF cells [5] = experiment: DHEA effect on cell growth; assay type: cell-based, human
HT-29 SF cells [6] = experiment: DHEA effect on cell cycle (flow cytometry); assay type: cell-based, human
Description: Cells were plated at 10^5/60-mm dish in duplicate. […] Cultures were trypsinized following 0, 24, 48, or 74 hours and fixed and stained using a modification of a procedure of Bauer et al., Cancer Res. 46, 3173-3178 (1986). Briefly, cells were collected by centrifugation and resuspended in cold phosphate-buffered saline. Cells were fixed in 70% ethanol, washed, and resuspended in phosphate-buffered saline.
After 24, 48, and 72 hours, cells were harvested, fixed in ethanol, and stained with propidium iodide, and the DNA content/cell was determined by flow cytometric analysis. The percentage of cells in G1, S, and G2M phases was calculated using the Cellfit cell cycle analysis program. S phase is marked by a quadrangle for clarity. Representative histograms from duplicate determinations are shown. The experiment was repeated three times.

C[C@]12CCC(=O)C=C1CC[C@@H]1[C@@H]2CC[C@@]2(C)[C@H]1CC[C@]2(C)O [Methyltestosterone, methyltestosterone]
Intracellular adenosine, Brain (Intracellular adenosine; rat, in vivo): 0.42 ± 0.06 and 0.32 ± 0.03 | Intracellular adenosine, Heart (Intracellular adenosine; rat, in vivo): 8.3 ± 1.0 and 6.0 ± 0.4 | effect on tissue adenosine (Intracellular adenosine; rat, in vivo): multi-organ depletion of adenosine

Nc1nc(=O)c2c([nH]1)NCC(CNc1ccc(C(=O)N[C@@H](CCC(=O)O)C(=O)O)cc1)N2C=O (mixture of isomers) [Folinic Acid, Folinic acid]
Intracellular adenosine, Brain (Intracellular adenosine; Fischer 344 rats, once daily 14 days, DHEA 300 mg/kg, methyltestosterone 120 mg/kg, folinic acid 50 mg/kg i.p., mean ± SEM, control 0.5 ± 0.04): 0.72 ± 0.09 nmols/mg protein | effect of folinic acid administered alone on adenosine levels (Intracellular adenosine; rats, folinic acid 50 mg/kg i.p. 14 days): increase in adenosine levels for all organs studied | effect of coadministration of folinic acid on steroid-mediated adenosine depletion (Intracellular adenosine; rats, folinic acid 50 mg/kg i.p. with DHEA or methyltestosterone): completely abrogated steroid-mediated adenosine depletion

C[C@]12CC[C@H](OS(=O)(=O)[O-])CC1=CC[C@@H]1[C@@H]2CC[C@]2(C)C(=O)CC[C@@H]12.[Na+] [Anhydrous DHEA-S]
DHEA % formed from Anhydrous DHEA-S at 50° C. ([1]; 1 week): 9.817% | DHEA % formed from Anhydrous DHEA-S at 50° C. ([1]; 2 weeks): 14.954% | DHEA % formed from Anhydrous DHEA-S at 50° C. ([1]; 4 weeks): 20.171% | DHEA % formed from Anhydrous DHEA-S ([1]; 1 week): 2.694% | DHEA % formed from Anhydrous DHEA-S ([1]; 2 weeks): 2.370% | DHEA % formed from Anhydrous DHEA-S ([1]; 4 weeks): 2.666% | DHEA % formed from Anhydrous DHEA-S ([1]; Time (Weeks), initial value): 2.774%

C[C@]12CC[C@H](OS(=O)(=O)[O-])CC1=CC[C@@H]1[C@@H]2CC[C@]2(C)C(=O)CC[C@@H]12.[Na+] [DHEA-S, sodium dehydroepiandrostenone sulfate]
drug degradation during jet milling micronization [2]: no detectable degradation of the drug during the jet milling micronization process | calculated DHEA-S solution concentration (Solubility of DHEA-S): 27.5 mM and 10.7 mg/mL | stability of nebulizer formulation [3]: stable for at least one day at RT | highest solution concentration that will not precipitate during nebulization (Nebulizer studies): approximately 7.5 mg/mL

CC(C)Oc1cccc(CC(=O)N2CCC[C@](CC[N+]34CCC(c5ccccc5)(CC3)CC4)(c3ccc(Cl)c(Cl)c3)C2)c1 [SR 140333]
% Inhibition of Histamine Release ([4]; antagonist 1 nM): 1% | % Inhibition of Histamine Release ([4]; antagonist 30 nM): −8% | % Inhibition of Histamine Release ([4]; antagonist 100 nM): −5% | effect on compound 48/80 induced mast cell degranulation [4]: minimal effect (if any) | IC50 (NK1): 50 nM

C=CCN1CC[C@]23c4c5ccc(O)c4O[C@H]2C(=O)CC[C@@]3(O)[C@H]1C5 [Naloxone, naloxone]
% Inhibition of Histamine Release ([4]; antagonist 1 nM): −1% | % Inhibition of Histamine Release ([4]; antagonist 10 nM): −1% | % Inhibition of Histamine Release ([4]; antagonist 100 nM): −2% | effect on compound 48/80 induced mast cell degranulation [4]: minimal effect (if any)

CC12CCC3C(CC=C4CC(OS(=O)(=O)[O-])CCC43C)C1CCC2=O.[Na+] (centres unmarked) [DHEA-S Dihydrate]
Percent DHEA formed from DHEA-S Dihydrate at 50° C. ([1]; 1 week): 0.216% | Percent DHEA formed from DHEA-S Dihydrate at 50° C. ([1]; 3 weeks): 0.317% | Percent DHEA formed from DHEA-S Dihydrate at 50° C. ([1]; 4 weeks): 0.374% | Percent DHEA formed from DHEA-S Dihydrate ([1]; 4 weeks): 0.218% | Percent DHEA formed from DHEA-S Dihydrate ([1]; Time (Weeks), initial value): 0.213%

C[C@]12CC[C@H](O)CC1=CC[C@@H]1[C@@H]2CC[C@]2(C)C(=O)CC[C@@H]12 [DHEA, 3β-hydroxyandrost-5-en-17-one]
effect on tissue adenosine (Intracellular adenosine; rat, in vivo): multi-organ depletion of adenosine | exposure time after which cell number was reduced compared to controls (HT-29 SF cells [5]; 12.5 μM): 72 h | exposure time after which cell number was reduced compared to controls (HT-29 SF cells [5]; 25 μM): 48 h | exposure time after which cell number was reduced compared to controls (HT-29 SF cells [5]; 50 μM): 48 h | exposure time after which cell number was reduced compared to controls (HT-29 SF cells [5]; 200 μM): 24 h | cell cycle effect (summary) (HT-29 SF cells [6]; 25-200 μM, 24-72 hours): G1 block in HT-29 SF cells in a time-and dose-dependent manner | cell cycle distribution (HT-29 SF cells [6]; 25 or 50 μM, 72 hours): the percentage of cells in G1 phase was increased after 72 hours
